Reference: ChEMBL document CHEMBL1136143, “Synthesis and activity of novel benzoxazole derivatives of mannopeptimycin glycopeptide antibiotics” (2003)
In brackets after ≈: the same amount, converted by molar mass.

Legend:
Type in all cases: functional
Enterococcus sp. = assay: In vitro minimum inhibitory concentration against Enterococcus species (11 strains, including VRE)
Staphylococcus aureus = assay: In vitro minimum inhibitory concentration against Staphylococcus aureus (10strains, including MRSA)
Streptococcus = assay: In vitro minimum inhibitory concentration against Streptococcus Species (5 strains, including PRSP)

Row | Structure (SMILES) | MIC (Enterococcus sp.) | MIC (Staphylococcus aureus) | MIC (Streptococcus)
1 | C[C@@H](c1ccccc1)[C@@H]1NC(=O)CNC(=O)[C@H](CO)NC(=O)[C@@H]([C@@H](O)[C@@H]2CN=C(N)N2[C@H]2O[C@H](CO)[C@@H](O)[C@H](O)[C@@H]2O)NC(=O)[C@H]([C@H](O)[C@@H]2CN=C(N)N2)NC(=O)[C@@H](Cc2ccc3nc(-c4ccc(C(=O)O)cc4)oc3c2)NC1=O | 128 µg/mL (≈ 115 µM) | > 128 µg/mL | 128 µg/mL (≈ 115 µM)
2 | C[C@@H](c1ccccc1)[C@@H]1NC(=O)CNC(=O)[C@H](CO)NC(=O)[C@@H]([C@@H](O)[C@@H]2CN=C(N)N2[C@H]2O[C@H](CO)[C@@H](O)[C@H](O)[C@@H]2O)NC(=O)[C@H]([C@H](O)[C@@H]2CN=C(N)N2)NC(=O)[C@@H](Cc2ccc3nc(-c4cccs4)oc3c2)NC1=O | 16 µg/mL (≈ 14.8 µM) | 8 µg/mL (≈ 7.42 µM) | 16 µg/mL (≈ 14.8 µM)
3 | CN[C@H](CC(C)C)C(=O)N[C@H]1C(=O)N[C@@H](CC(N)=O)C(=O)N[C@H]2C(=O)N[C@H]3C(=O)N[C@H](C(=O)N[C@H](C(=O)O)c4cc(O)cc(O)c4-c4cc3ccc4O)[C@H](O)c3ccc(c(Cl)c3)Oc3cc2cc(c3O[C@@H]2O[C@H](CO)[C@@H](O)[C@H](O)[C@H]2O[C@H]2C[C@](C)(N)[C@H](O)[C@H](C)O2)Oc2ccc(cc2Cl)[C@H]1O [VANCOMYCIN] | 5 µg/mL (≈ 3.45 µM) | – | 0.25 µg/mL (≈ 0.173 µM)
4 | C[C@@H](c1ccccc1)[C@@H]1NC(=O)CNC(=O)[C@H](CO)NC(=O)[C@@H]([C@@H](O)[C@@H]2CN=C(N)N2[C@H]2O[C@H](CO)[C@@H](O)[C@H](O)[C@@H]2O)NC(=O)[C@H]([C@H](O)[C@@H]2CN=C(N)N2)NC(=O)[C@@H](Cc2ccc3nc(-c4ccc(Br)cc4)oc3c2)NC1=O | 8 µg/mL (≈ 6.95 µM) | 8 µg/mL (≈ 6.95 µM) | 4 µg/mL (≈ 3.48 µM)
5 | C[C@@H](c1ccccc1)[C@@H]1NC(=O)CNC(=O)[C@H](CO)NC(=O)[C@@H]([C@@H](O)[C@@H]2CN=C(N)N2[C@H]2O[C@H](CO)[C@@H](O)[C@H](O)[C@@H]2O)NC(=O)[C@H]([C@H](O)[C@@H]2CN=C(N)N2)NC(=O)[C@@H](Cc2ccc3nc(-c4ccccc4OC4O[C@H](CO)[C@@H](O)[C@H](O)[C@H]4O)oc3c2)NC1=O (stereo partly specified) | 128 µg/mL (≈ 102 µM) | > 128 µg/mL | 128 µg/mL (≈ 102 µM)
6 | COc1cc(-c2nc3ccc(C[C@H]4NC(=O)[C@H]([C@@H](C)c5ccccc5)NC(=O)CNC(=O)[C@H](CO)NC(=O)[C@@H]([C@@H](O)[C@@H]5CN=C(N)N5[C@H]5O[C@H](CO)[C@@H](O)[C@H](O)[C@@H]5O)NC(=O)[C@H]([C@H](O)[C@@H]5CN=C(N)N5)NC4=O)cc3o2)cc(OC)c1OC | 8 µg/mL (≈ 6.88 µM) | 8 µg/mL (≈ 6.88 µM) | 8 µg/mL (≈ 6.88 µM)
7 | C[C@@H](c1ccccc1)[C@@H]1NC(=O)CNC(=O)[C@H](CO)NC(=O)[C@@H]([C@@H](O)[C@@H]2CN=C(N)N2[C@H]2O[C@H](CO)[C@@H](O)[C@H](O)[C@@H]2O)NC(=O)[C@H]([C@H](O)[C@@H]2CN=C(N)N2)NC(=O)[C@@H](Cc2ccc3nc(-c4ccco4)oc3c2)NC1=O | 32 µg/mL (≈ 30.1 µM) | 6 µg/mL (≈ 5.65 µM) | 32 µg/mL (≈ 30.1 µM)
8 | C[C@@H](c1ccccc1)[C@@H]1NC(=O)CNC(=O)[C@H](CO)NC(=O)[C@@H]([C@@H](O)[C@@H]2CN=C(N)N2)NC(=O)[C@H]([C@H](O)[C@@H]2CN=C(N)N2)NC(=O)[C@@H](Cc2ccc3nc(-c4ccccc4)oc3c2)NC1=O | 32 µg/mL (≈ 35.2 µM) | 32 µg/mL (≈ 35.2 µM) | 32 µg/mL (≈ 35.2 µM)
9 | C[C@@H](c1ccccc1)[C@@H]1NC(=O)CNC(=O)[C@H](CO)NC(=O)[C@@H]([C@@H](O)[C@@H]2CN=C(N)N2[C@H]2O[C@H](CO)[C@@H](O)[C@H](O)[C@@H]2O)NC(=O)[C@H]([C@H](O)[C@@H]2CN=C(N)N2)NC(=O)[C@@H](Cc2ccc3nc(-c4cccc(C(C)(C)C)c4)oc3c2)NC1=O | 8 µg/mL (≈ 7.09 µM) | 16 µg/mL (≈ 14.2 µM) | 8 µg/mL (≈ 7.09 µM)
10 | CC(C)=Cc1nc2ccc(C[C@H]3NC(=O)[C@H]([C@@H](C)c4ccccc4)NC(=O)CNC(=O)[C@H](CO)NC(=O)[C@@H]([C@@H](O)[C@@H]4CN=C(N)N4[C@H]4O[C@H](CO)[C@@H](O)[C@H](O)[C@@H]4O)NC(=O)[C@H]([C@H](O)[C@@H]4CN=C(N)N4)NC3=O)cc2o1 | 16 µg/mL (≈ 15.2 µM) | 32 µg/mL (≈ 30.5 µM) | 32 µg/mL (≈ 30.5 µM)
11 | C[C@@H](c1ccccc1)[C@@H]1NC(=O)CNC(=O)[C@H](CO)NC(=O)[C@@H]([C@@H](O)[C@@H]2CN=C(N)N2[C@H]2O[C@H](CO)[C@@H](O)[C@H](O)[C@@H]2O)NC(=O)[C@H]([C@H](O)[C@@H]2CN=C(N)N2)NC(=O)[C@@H](Cc2ccc3nc(C=C(c4ccccc4)c4ccccc4)oc3c2)NC1=O | 8 µg/mL (≈ 6.81 µM) | 8 µg/mL (≈ 6.81 µM) | 4 µg/mL (≈ 3.41 µM)

Compounds with a lower MIC (Enterococcus sp.), results first:

Row | MIC (Enterococcus sp.) | MIC (Staphylococcus aureus) | MIC (Streptococcus) | Structure (SMILES)
12 | 4 µg/mL (≈ 3.48 µM) | 4 µg/mL (≈ 3.48 µM) | 16 µg/mL (≈ 13.9 µM) | C[C@@H](c1ccccc1)[C@@H]1NC(=O)CNC(=O)[C@H](CO)NC(=O)[C@@H]([C@@H](O)[C@@H]2CN=C(N)N2[C@H]2O[C@H](CO)[C@@H](O)[C@H](O)[C@@H]2O)NC(=O)[C@H]([C@H](O)[C@@H]2CN=C(N)N2)NC(=O)[C@@H](Cc2ccc3nc(-c4ccc(-c5ccccc5)cc4)oc3c2)NC1=O
13 | 4 µg/mL (≈ 3.49 µM) | 8 µg/mL (≈ 6.98 µM) | 8 µg/mL (≈ 6.98 µM) | C[C@@H](c1ccccc1)[C@@H]1NC(=O)CNC(=O)[C@H](CO)NC(=O)[C@@H]([C@@H](O)[C@@H]2CN=C(N)N2[C@H]2O[C@H](CO)[C@@H](O)[C@H](O)[C@@H]2O)NC(=O)[C@H]([C@H](O)[C@@H]2CN=C(N)N2)NC(=O)[C@@H](Cc2ccc3nc(SCC(=O)c4ccccc4)oc3c2)NC1=O
14 | 4 µg/mL (≈ 3.58 µM) | 4 µg/mL (≈ 3.58 µM) | 4 µg/mL (≈ 3.58 µM) | C[C@@H](c1ccccc1)[C@@H]1NC(=O)CNC(=O)[C@H](CO)NC(=O)[C@@H]([C@@H](O)[C@@H]2CN=C(N)N2[C@H]2O[C@H](CO)[C@@H](O)[C@H](O)[C@@H]2O)NC(=O)[C@H]([C@H](O)[C@@H]2CN=C(N)N2)NC(=O)[C@@H](Cc2ccc3nc(SCc4ccccc4)oc3c2)NC1=O
15 | 4 µg/mL (≈ 3.45 µM) | 8 µg/mL (≈ 6.9 µM) | 4 µg/mL (≈ 3.45 µM) | C[C@@H](c1ccccc1)[C@@H]1NC(=O)CNC(=O)[C@H](CO)NC(=O)[C@@H]([C@@H](O)[C@@H]2CN=C(N)N2[C@H]2O[C@H](CO)[C@@H](O)[C@H](O)[C@@H]2O)NC(=O)[C@H]([C@H](O)[C@@H]2CN=C(N)N2)NC(=O)[C@@H](Cc2ccc3nc(-c4ccc5c(c4)-c4ccccc4C5)oc3c2)NC1=O
16 | 4 µg/mL (≈ 2.52 µM) | 32 µg/mL (≈ 20.1 µM) | 4 µg/mL (≈ 2.52 µM) | C[C@@H](c1ccccc1)[C@@H]1NC(=O)CNC(=O)[C@H](CO)NC(=O)[C@@H]([C@@H](O)[C@@H]2CN=C(N)N2[C@H]2O[C@H](CO)[C@@H](O)[C@H](O)[C@@H]2O)NC(=O)[C@H]([C@H](O)[C@@H]2CN=C(N)N2)NC(=O)[C@@H](Cc2ccc3nc(NC4O[C@@H](OC(=O)c5ccccc5)[C@H](OC(=O)c5ccccc5)[C@@H](OC(=O)c5ccccc5)[C@@H]4COC(=O)c4ccccc4)oc3c2)NC1=O (stereo partly specified)
17 | 4 µg/mL (≈ 3.39 µM) | 8 µg/mL (≈ 6.79 µM) | 8 µg/mL (≈ 6.79 µM) | C[C@@H](c1ccccc1)[C@@H]1NC(=O)CNC(=O)[C@H](CO)NC(=O)[C@@H]([C@@H](O)[C@@H]2CN=C(N)N2[C@H]2O[C@H](CO)[C@@H](O)[C@H](O)[C@@H]2O)NC(=O)[C@H]([C@H](O)[C@@H]2CN=C(N)N2)NC(=O)[C@@H](Cc2ccc3nc(-c4ccc(OCc5ccccc5)cc4)oc3c2)NC1=O
18 | 2 µg/mL (≈ 1.67 µM) | 8 µg/mL (≈ 6.7 µM) | 2 µg/mL (≈ 1.67 µM) | C[C@@H](c1ccccc1)[C@@H]1NC(=O)CNC(=O)[C@H](CO)NC(=O)[C@@H]([C@@H](O)[C@@H]2CN=C(N)N2[C@H]2O[C@H](CO)[C@@H](O)[C@H](O)[C@@H]2O)NC(=O)[C@H]([C@H](O)[C@@H]2CN=C(N)N2)NC(=O)[C@@H](Cc2ccc3nc(SCc4ccc(-c5ccccc5)cc4)oc3c2)NC1=O
19 | 2 µg/mL (≈ 1.77 µM) | 2 µg/mL (≈ 1.77 µM) | 8 µg/mL (≈ 7.09 µM) | C[C@@H](c1ccccc1)[C@@H]1NC(=O)CNC(=O)[C@H](CO)NC(=O)[C@@H]([C@@H](O)[C@@H]2CN=C(N)N2[C@H]2O[C@H](CO)[C@@H](O)[C@H](O)[C@@H]2O)NC(=O)[C@H]([C@H](O)[C@@H]2CN=C(N)N2)NC(=O)[C@@H](Cc2ccc3nc(-c4ccc(C(C)(C)C)cc4)oc3c2)NC1=O
